# Measurements reported in US12692269B2, “Therapeutic compounds” (Genentech, Inc., priority 2019, dated 2026).
# pEC50: −log10 of the molar value.
# Assays:
# Assay type in all cases: binding
# [1] = target: TEAD4 TAZ (amino acids 13-57) (Homo sapiens, UniProt Q15561); assay: TEAD4-TAZ HTRF (TR-FRET) protein-protein interaction assay; details: for TEAD4 TAZ HTRF combined: Max % Inhibition: TEAD4, TAZ peptide; for pEC50: TEAD4-TAZ HTRF, TR-FRET 665 nm/615 nm, read-out: TEAD4 TAZ HTRF combined: EC50
# Chain of TEAD4 TAZ (amino acids 13-57) (Q15561 217-434 limits assumed): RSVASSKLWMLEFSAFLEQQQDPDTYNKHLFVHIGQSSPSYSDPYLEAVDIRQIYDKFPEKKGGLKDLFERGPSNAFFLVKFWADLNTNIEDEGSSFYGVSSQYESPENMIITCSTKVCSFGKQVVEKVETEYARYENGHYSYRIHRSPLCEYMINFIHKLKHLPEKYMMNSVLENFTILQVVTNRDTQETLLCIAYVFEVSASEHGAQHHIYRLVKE
# Procedure: (§1) Purified His-tagged TEAD protein (YAP Binding Domain, amino acids 217-447) is pre-incubated with Europium labelled anti-His antibody tracer (Perkin Elmer Cat #AD0110). Small molecule Inhibitors are then incubated with the TEAD-Eu protein complex for 30 minutes to allow for binding to TEAD protein. Biotinylated YAP peptide for TEAD-YAP assays (AA's 50-100) or biotinylated TAZ peptide for TEAD-TAZ assays (AA's 13-57) that has been pre-incubated with streptavidin-xl665 acceptor (CIS-Bio Cat #610SAXAC) or is added to the compound-TEAD mix. The TEAD-YAP-inhibitor mixture is then incubated for 60 minutes at room temperature. All reactions are carried out in a polystyrene plate. After 60 minutes, the plate is read on a plate reader using TR-FRET mode with wavelengths of 665 nm/615 nm. If YAP or TAZ binds to TEAD as expected, a TR-FRET signal results from the proximity of YAP or TAZ and TEAD after binding. If an inhibitor such as peptide 17 (Selleckchem Cat #58164) interferes with YAP-TEAD or TAZ-TEAD binding, the disruption of the YAP or TAZ:TEAD interaction results in a decrease in TR-FRET signal. The potency of compounds as YAP:TEAD or TAZ:TEAD protein-protein interaction (PPi) inhibitors is determined by an IC50 or EC50 value generated using a non-linear four parameter curve fit.
# TEAD1 YAP50-100 = TEAD1 YAP50-100 (Homo sapiens, UniProt P28347); assay: TEAD1-YAP HTRF (TR-FRET) protein-protein interaction assay; details: TEAD1, YAP peptide 50-100, HTRF; for pEC50: read-out: TEAD1 YAP50-100 HTRF combined: EC50
# Chain of TEAD1 YAP50-100 (P28347 167-426 limits assumed): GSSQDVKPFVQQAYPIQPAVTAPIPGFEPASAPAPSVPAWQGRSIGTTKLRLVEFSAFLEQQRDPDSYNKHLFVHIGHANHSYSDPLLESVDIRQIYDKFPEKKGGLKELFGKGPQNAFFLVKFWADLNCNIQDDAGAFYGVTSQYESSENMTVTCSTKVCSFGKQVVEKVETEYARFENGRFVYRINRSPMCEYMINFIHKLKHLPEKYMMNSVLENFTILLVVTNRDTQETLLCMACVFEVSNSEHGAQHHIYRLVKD
# Procedure: as §1
# [2] = target: TEAD1 TAZ (amino acids 13-57) (Homo sapiens, UniProt P28347); assay: TEAD1-TAZ HTRF (TR-FRET) protein-protein interaction assay; details: for TEAD1 TAZ HTRF combined: Max % Inhibition: TEAD1, TAZ peptide; for pEC50: TEAD1-TAZ HTRF, TR-FRET 665 nm/615 nm, read-out: TEAD1 TAZ HTRF combined: EC50
# Chain of TEAD1 TAZ (amino acids 13-57) (P28347 167-426 limits assumed): as above
# Procedure: as §1
# TEAD2 YAP50-100 = TEAD2 YAP50-100 (Homo sapiens, UniProt Q15562); assay: TEAD2-YAP HTRF (TR-FRET) protein-protein interaction assay; details: TEAD2, YAP peptide 50-100, HTRF; for pEC50: read-out: TEAD2 YAP50-100 HTRF combined: EC50
# Chain of TEAD2 YAP50-100 (Q15562 217-447): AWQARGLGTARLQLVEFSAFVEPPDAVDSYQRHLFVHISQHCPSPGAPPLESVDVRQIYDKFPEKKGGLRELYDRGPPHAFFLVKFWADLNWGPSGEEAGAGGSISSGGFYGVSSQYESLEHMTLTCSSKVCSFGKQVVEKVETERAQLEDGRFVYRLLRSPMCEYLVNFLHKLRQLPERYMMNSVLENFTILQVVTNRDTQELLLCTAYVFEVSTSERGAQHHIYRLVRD
# Procedure: as §1
# TEAD3 YAP50-100 = TEAD3 YAP50-100 (Homo sapiens, UniProt Q99594); assay: TEAD3-YAP HTRF (TR-FRET) protein-protein interaction assay; details: TEAD3, YAP peptide 50-100, HTRF; for pEC50: read-out: TEAD3 YAP50-100 HTRF combined: EC50
# Chain of TEAD3 YAP50-100 (Q99594 173-435 limits assumed): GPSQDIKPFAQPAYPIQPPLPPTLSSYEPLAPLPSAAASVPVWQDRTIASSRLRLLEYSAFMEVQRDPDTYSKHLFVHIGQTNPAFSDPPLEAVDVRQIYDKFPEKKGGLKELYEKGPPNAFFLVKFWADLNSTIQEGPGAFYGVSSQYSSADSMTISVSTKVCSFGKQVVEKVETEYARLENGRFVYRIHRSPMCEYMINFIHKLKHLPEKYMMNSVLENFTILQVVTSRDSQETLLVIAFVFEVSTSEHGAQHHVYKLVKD
# Procedure: as §1
# TEAD4 YAP50-100 = TEAD4 YAP50-100 (Homo sapiens, UniProt Q15561); assay: TEAD4-YAP HTRF (TR-FRET) protein-protein interaction assay; details: TEAD4, YAP peptide 50-100, HTRF; for pEC50: read-out: TEAD4 YAP50-100 HTRF combined: EC50
# Chain of TEAD4 YAP50-100 (Q15561 217-434 limits assumed): as the sequence (Q15561 217-434 limits assumed) above
# Procedure: as §1
# [3] = target: TEAD2 TAZ (amino acids 13-57) (Homo sapiens, UniProt Q15562); assay: TEAD2-TAZ HTRF (TR-FRET) protein-protein interaction assay; details: for TEAD2 TAZ HTRF combined: Max % Inhibition: TEAD2, TAZ peptide; for pEC50: TEAD2-TAZ HTRF, TR-FRET 665 nm/615 nm, read-out: TEAD2 TAZ HTRF combined: EC50
# Chain of TEAD2 TAZ (amino acids 13-57) (Q15562 217-447): as the sequence (Q15562 217-447) above
# Procedure: as §1
# [4] = target: TEAD3 TAZ (amino acids 13-57) (Homo sapiens, UniProt Q99594); assay: TEAD3-TAZ HTRF (TR-FRET) protein-protein interaction assay; details: for TEAD3 TAZ HTRF combined: Max % Inhibition: TEAD3, TAZ peptide; for pEC50: TEAD3-TAZ HTRF, TR-FRET 665 nm/615 nm, read-out: TEAD3 TAZ HTRF combined: EC50
# Chain of TEAD3 TAZ (amino acids 13-57) (Q99594 173-435 limits assumed): as the sequence (Q99594 173-435 limits assumed) above
# Procedure: as §1
TEAD4 TAZ HTRF combined: Max % Inhibition [1] [%],pEC50 [1],TEAD1 YAP50-100 HTRF combined: Max % Inhibition (TEAD1 YAP50-100) [%],pEC50 (TEAD1 YAP50-100),TEAD1 TAZ HTRF combined: Max % Inhibition [2] [%],pEC50 [2],TEAD2 YAP50-100 HTRF combined: Max % Inhibition (TEAD2 YAP50-100) [%],pEC50 (TEAD2 YAP50-100),TEAD3 YAP50-100 HTRF combined: Max % Inhibition (TEAD3 YAP50-100) [%],pEC50 (TEAD3 YAP50-100),TEAD4 YAP50-100 HTRF combined: Max % Inhibition (TEAD4 YAP50-100) [%],pEC50 (TEAD4 YAP50-100),TEAD2 TAZ HTRF combined: Max % Inhibition [3] [%],pEC50 [3],TEAD3 TAZ HTRF combined: Max % Inhibition [4] [%],pEC50 [4],SMILES
56.0,7.10,74.0,6.92,65.5,6.96,67.0,7.70,69.5,6.82,58.5,7.00,68.5,7.70,59.5,6.80,"Cc1nccnc1-c1nn2c(=O)cc(-c3ccc(CC(C)(C)C)cc3)[nH]c2c1C(=O)N1C[C@H](CF)[C@@H]1C (racemic) [Compound 73, 5-[4-(2,2-dimethylpropyl)phenyl]-2-(3-methylpyrazin-2-yl)-3-[rac-(2S,3S)-3-(fluoromethyl)-2-methyl-azetidine-1-carbonyl]-4H-pyrazolo[1,5-a]pyrimidin-7-one]"
41.5,6.39,71.0,7.15,61.5,7.00,67.5,7.70,71.5,6.74,48.5,6.34,63.0,7.70,58.5,6.68,"CC1CCN1C(=O)c1nn2c(=O)cc(-c3ccc(C4CCCCC4)cc3)[nH]c2c1C(=O)N1CC(CF)C1 (single isomer, unassigned) [Enantiomer A, Example 33, 5-(4-Cyclohexylphenyl)-3-(3-(fluoromethyl)azetidine-1-carbonyl)-2-(2-methylazetidine-1-carbonyl)pyrazolo[1,5-a]pyrimidin-7(4H)-one]"
32.0,6.34,62.0,7.10,44.0,6.96,61.5,8.00,69.5,7.00,42.0,6.30,51.5,8.00,59.5,6.96,"C[C@H](CO)c1nn2c(=O)cc(-c3ccc(C4CCCCC4)cc3)[nH]c2c1C(=O)N1CC(CF)C1 (single isomer, unassigned) [Enantiomer A, Example 55]"
30.5,5.81,66.0,6.85,55.5,6.89,66.0,7.40,62.0,6.74,40.0,5.80,66.0,7.40,55.5,6.70,"O=C(c1c(C2CNCCO2)nn2c(=O)cc(-c3ccc(C4CCCCC4)cc3)[nH]c12)N1CC(CF)C1 (single isomer, unassigned) [Enantiomer A, Example 63, 5-(4-Cyclohexylphenyl)-3-[3-(fluoromethyl)azetidine-1-carbonyl]-2-morpholin-2-yl-4H-pyrazolo[1,5-a]pyrimidin-7-one]"
37.5,6.24,72.0,7.10,64.0,7.00,72.0,7.70,69.0,6.82,49.0,6.17,68.0,7.70,58.5,6.70,"CC1CCN1C(=O)c1nn2c(=O)cc(-c3ccc(C4CCCCC4)cc3)[nH]c2c1C(=O)N1CC(CF)C1 (single isomer, unassigned) [Enantiomer B, Example 33, 5-(4-Cyclohexylphenyl)-3-(3-(fluoromethyl)azetidine-1-carbonyl)-2-(2-methylazetidine-1-carbonyl)pyrazolo[1,5-a]pyrimidin-7(4H)-one]"
27.0,6.85,71.0,7.10,45.5,7.05,64.0,8.00,61.5,7.10,36.5,6.70,57.0,7.70,53.5,7.00,"C[C@@H](CO)c1nn2c(=O)cc(-c3ccc(C4CCCCC4)cc3)[nH]c2c1C(=O)N1CC(CF)C1 (single isomer, unassigned) [Enantiomer B, Example 55]"
28.0,6.23,62.0,7.05,52.0,6.85,62.5,7.40,59.5,6.82,35.0,5.96,65.0,7.52,52.0,6.80,"O=C(c1c(C2CNCCO2)nn2c(=O)cc(-c3ccc(C4CCCCC4)cc3)[nH]c12)N1CC(CF)C1 (single isomer, unassigned) [Enantiomer B, Example 63, 5-(4-Cyclohexylphenyl)-3-[3-(fluoromethyl)azetidine-1-carbonyl]-2-morpholin-2-yl-4H-pyrazolo[1,5-a]pyrimidin-7-one]"
67.0,5.65,74.0,6.43,63.0,6.49,92.0,7.22,81.5,6.43,69.5,5.57,89.0,7.22,74.5,6.37,"Cc1nccnc1-c1nn2c(=O)cc(-c3ccc(OC(c4ccccc4)C(F)(F)F)cc3)[nH]c2c1C(=O)N1C[C@H](CF)[C@@H]1C (single isomer, unassigned) [Final product obtained using Enantiomer A from Step 1, Example 56]"
